{"source": "paper PMC6624388", "about": "(British Journal of Clinical Pharmacology, 2019)", "key": {"[1]": {"assay_type": "in vivo, human"}, "[2]": {"assay": "Part 2 mass balance", "assay_type": "in vivo, human"}, "[3]": {"assay_type": "in vivo, human", "remark": "listed apart in the source"}, "[4]": {"assay": "Solubility in water and other physiological relevant media", "assay_type": "physicochemical"}, "[5]": {"assay": "Stability of navoximod in human plasma", "assay_type": "in vitro ADME", "conditions": "five freeze–thaw cycles; at least 110 days at −10°C to −30°C and −60°C to −80°C; 24 h at room temperature"}, "[6]": {"assay": "Safety assessments in Parts 1 and 2", "assay_type": "in vivo, human", "conditions": "both parts, healthy volunteers"}, "[7]": {"conditions": "cited from earlier work"}, "[8]": {"tested_on": "UGTs", "conditions": "ref unpublished results; cited from earlier work"}, "[9]": {"tested_on": "tumour growth", "conditions": "in combination with anti‐PD‐L1, preclinical models; cited from earlier work"}, "[10]": {"conditions": "Part 2, oral 200 mg/600 μCi [14C]-navoximod"}}, "note": "Where “and” joins values, the source holds several entries; their conditions need not be identical. Equal entries are not always repeated. Where two headings read alike, the source gives them in different places.", "data": [{"smiles": "O[C@H](C[C@H]1c2c(F)cccc2-c2cncn21)[C@H]1CC[C@H](O)CC1", "note": "[navoximod]", "values": [{"measurement": "total IV clearance relative to blood flow", "setting": "[1]; IV 5 mg", "value": "~ 71 % of blood flow"}, {"measurement": "CL/F (apparent oral clearance)", "setting": "[1]; Part 1, healthy volunteers, oral 200 mg tablet, fasted, n = 16, geometric mean (geometric CV%)", "value": "112 L/h and 112 (31.4) L/h"}, {"measurement": "AUC(0-inf)", "setting": "[1]; human, plasma, iv, 5 mg", "value": 80.6, "unit": "ng·h/mL"}, {"measurement": "AUC(0-t)", "setting": "[1]; human, plasma, iv, 5 mg", "value": 79.1, "unit": "ng·h/mL"}, {"measurement": "Cmax", "setting": "[1]; human, plasma, iv, 5 mg", "value": 114, "unit": "ng/mL"}, {"measurement": "Tmax", "setting": "[1]; human, plasma, iv, 5 mg", "value": 5, "unit": "min"}, {"measurement": "Vd", "setting": "[1]; human, plasma, iv, 5 mg", "value": 1120, "unit": "L"}, {"measurement": "clearance", "setting": "[1]; human, plasma, iv, 5 mg", "value": 1030, "unit": "mL/min"}, {"measurement": "half-life", "setting": "[1]; human, plasma, iv, 5 mg", "value": 12.6, "unit": "h"}, {"measurement": "bioavailability", "setting": "[1]; human, plasma, oral, 200 mg", "value": 55.5, "unit": "%"}, {"measurement": "AUC(0-inf)", "setting": "[1]; human, plasma, po, 200 mg", "value": 1790, "unit": "ng·h/mL"}, {"measurement": "AUC(0-t)", "setting": "[1]; human, plasma, po, 200 mg", "value": 1770, "unit": "ng·h/mL"}, {"measurement": "Cmax", "setting": "[1]; human, plasma, po, 200 mg", "value": 683, "unit": "ng/mL"}, {"measurement": "Vd/F", "setting": "[1]; human, plasma, po, 200 mg", "value": 1780, "unit": "L"}, {"measurement": "half-life", "setting": "[1]; human, plasma, po, 200 mg", "value": 11, "unit": "h"}, {"measurement": "recovery of total radioactivity in urine", "setting": "[2]; % of administered dose, mean (± SD), oral 200 mg/600 μCi [14C]-navoximod", "value": 80.4, "unit": "%"}, {"measurement": "navoximod as share of plasma total radioactivity, geometric mean AUC0‐∞ ratio", "setting": "[2]; [10]", "value": 4.21, "unit": "%"}, {"measurement": "navoximod as share of plasma total radioactivity, geometric mean C max ratio", "setting": "[2]; [10]", "value": 10.6, "unit": "%"}, {"measurement": "geometric mean whole blood to plasma AUC0‐∞ ratio for total radioactivity", "setting": "[2]; Part 2, total radioactivity (parent and metabolites)", "value": 0.965}, {"measurement": "Fh", "setting": "[2]; assuming Fg = 1", "value": "approximately 0.66"}, {"measurement": "extrahepatic clearance", "setting": "[2]; estimated", "value": 31.2, "unit": "L/h"}, {"measurement": "total radioactivity recovered in excreta within the first 72 h", "setting": "[2]; first 72 h, oral 200 mg/600 μCi [14C]-navoximod", "value": 85.0, "unit": "%"}, {"measurement": "Fh * Fg", "setting": "[2]; from F and Fa", "value": 0.66}, {"measurement": "AUC(0-inf)", "setting": "[2]; human, plasma, po, 200 mg", "value": 1540, "unit": "ng·h/mL"}, {"measurement": "AUC(0-t)", "setting": "[2]; human, plasma, po, 200 mg", "value": 1510, "unit": "ng·h/mL"}, {"measurement": "Cmax", "setting": "[2]; human, plasma, po, 200 mg", "value": 464, "unit": "ng/mL"}, {"measurement": "Vd/F", "setting": "[2]; human, plasma, po, 200 mg", "value": 1680, "unit": "L"}, {"measurement": "half-life", "setting": "[2]; human, plasma, po, 200 mg", "value": 9.41, "unit": "h"}, {"measurement": "CL renal", "setting": "[2]; human, urine and plasma, oral, 200 mg", "value": 20.3, "unit": "mL/min"}, {"measurement": "hepatic clearance (CLhep = [1 − Fh] * Qh)", "setting": "[2]; in vivo", "value": 29.6, "unit": "L/h"}, {"measurement": "fraction of metabolism (fm)", "setting": "[2]; oral 200 mg", "value": 0.98}, {"measurement": "hepatic first pass extraction", "setting": "[2]; oral 200 mg", "value": "~ 34%"}, {"measurement": "fraction of the dose absorbed (Fa)", "setting": "[2]; sum of radioactivity in urine and metabolites in faeces, as fraction", "value": 0.841}, {"measurement": "AUC(0-t)", "setting": "[3]; human, plasma, oral, 200 mg", "value": 4.4, "unit": "µM·h"}, {"measurement": "Total (urine + feces) % of dose", "setting": "[3]; mean of eight subjects, oral 200 mg/600 μCi [14C]-navoximod", "value": "5.45 % of dose"}, {"measurement": "Plasma % of TRA (share of total drug-derived exposure)", "setting": "[3]; pooled 0–48 h plasma, n = 8, adjusted with extraction recovery, oral 200 mg/600 μCi [14C]-navoximod", "value": 7.00, "unit": "%"}, {"measurement": "Feces % of dose", "setting": "[3]; pooled faeces, mean of eight subjects, oral 200 mg/600 μCi [14C]-navoximod", "value": "3.79 % of dose"}, {"measurement": "Urine % of dose", "setting": "[3]; pooled urine, mean of eight subjects, oral 200 mg/600 μCi [14C]-navoximod", "value": "1.66 % of dose"}, {"measurement": "solubility", "setting": "[4]", "value": 200, "unit": "mg/mL"}, {"measurement": "stability in human plasma", "setting": "[5]", "value": "stable"}, {"measurement": "tolerability", "setting": "[6]; all IV (5 mg) and oral (200 mg) doses", "value": "generally well tolerated"}, {"measurement": "severity of adverse events", "setting": "[6]; all IV and oral doses", "value": "mild"}, {"measurement": "mean accumulation index", "setting": "[7]; BID dosing", "value": "approximately 1.7"}, {"measurement": "half‐life", "setting": "[7]; clinical studies, monotherapy or with atezolizumab", "value": "approximately 12 hours"}, {"measurement": "dose proportionality of exposure", "setting": "[7]; dose range of 50–1000 mg", "value": "dose‐proportional increases in exposure"}, {"measurement": "tolerability of single and twice daily oral doses", "setting": "[7]; monotherapy, up to 1000 mg, cancer patients", "value": "well tolerated"}, {"measurement": "major UGTs responsible for navoximod metabolism", "setting": "[8]", "value": "UGT1A9 and 2B7"}, {"measurement": "effect on tumour growth", "setting": "[9]", "value": "inhibits tumour growth compared to either treatment alone"}]}]}
